What was measured:
primary rat neurons = settings: E18 rat neurons, 48 h; naphthols up to 10 μM; CPT positive control
Protocol: E18 rat neurons were isolated from Sprague-Dawley rats at 18 days after gestation. The isolated neurons were plated into a 6-well plate coated with poly-D-lysine. On day 5 after plating the neurons, different compounds of indicated concentrations were added (in triplicates) and incubated with the neurons for 48 h. Then the neurons were harvested and the number of live neurons was counted with a hemacytometer after staining with trypan blue. Data were presented as mean±SD.
CREB is a pleiotrophic factor involved in many different cellular processes including neuronal survival. The possibility of neuronal cell death might be a concern for CREB inhibitors in the future clinical applications if they could cross the blood brain barrier. Therefore, the toxicity of naphthol AS-E phosphate (i) or its active form, naphthol AS-E (ii), to primary rat neurons was investigated. Isolated E18 rat neurons were treated with increasing concentrations of naphthol AS-E phosphate (i) or naphthol AS-E (ii) for 48 h. […] At the end of the treatment, the neurons were collected and the number of live neurons were counted using trypan blue exclusion assay (FIG. 3).

[1] = tested on: CREB-mediated gene transcription; experiment: CREB renilla luciferase reporter assay in HEK293T cells; assay type: cell-based; settings: Homo sapiens, HEK-293T, forskolin 10 μM, read-out: CREB transcription inhibition IC50
Protocol: HEK293T cells in a 10-cm plate were transfected with pCRE-RLuc (6.0 μg) with Lipofectamine™ 2000 (Invitrogen, Carlsbad, Calif.) according to manufacturer's protocol. After 3 h, the transfected cells were collected and replated into a 96-well plate (4×10^4 cells/well). The cells were allowed to attach to the bottom of the wells for overnight, when compounds of different concentrations were added to the cells. Forskolin (final concentration of 10 μM, Alexis Biochemicals, San Diego, Calif.) was added 30 min after the addition of the compounds. The cells were then incubated at 37° C. for 4.5 h and the media were removed. The cells were then lysed in renilla luciferase lysis buffer (Promega, Madison, Wis.). To measure luciferase activity, five μL of the lysate was combined with 30 μL of coelenterazine (Nanolight, Pinetop, Ariz.) solution in PBS (10 μg/mL). The sample protein concentration was determined by Dye Reagent Concentrate (Bio-Rad, Hercules, Calif.). The luciferase activity was normalized to protein content in each well and expressed as RLU/μg protein.

A549 cells [2] = experiment: A549 cancer cell growth inhibition, MTT (Example 6); assay type: cell-based; settings: Homo sapiens, 72-h incubation
Protocol: (§1) HeLa, A549, and MCF-7 cells, in a 96-well plate (1.0×10^5/well) were treated with different concentrations of the compounds for 72 h. Then the number of cells was quantified by incubating cells with MTT reagent (Sigma, 50 μg/mL) for 3 h. The reduced formazan product was solubilized in DMSO to be measured spectrophotometrically at 570 nm.

KIX-KID interaction = biological target: T1, KIX-KID interaction (Homo sapiens, UniProt Q92793); experiment: In vitro renilla luciferase complementation assay; assay type: biochemical; settings: 4° C., 24 h, read-out: KIX-KID interaction inhibition IC50
T1 construct: RLucC-KIX (15 ng) and KID-RLucN-containing cell lysates; made in house
T1 sequence (Q92793 587-666 limits assumed): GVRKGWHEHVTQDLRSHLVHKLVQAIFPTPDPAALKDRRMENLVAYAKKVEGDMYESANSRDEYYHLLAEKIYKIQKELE
Protocol: RLucC-KIX (15 ng) and KID-RLucN-containing cell lysates (0.5 mg) were mixed together in renilla luciferase lysis buffer (Promega, Madison, Wis.) in the presence of different concentrations of compounds. The final volume of the incubation mixture is 30 μL. The mixture was incubated at 4° C. for 24 h. Then renilla luciferase activity was measured by combining 5 μL of incubation mixture with 30 μL of coelenterazine solution in PBS (pH 7.4, 10 μg/mL).

HeLa cells [3] = experiment: HeLa cancer cell growth inhibition, MTT (Example 6); assay type: cell-based; settings: Homo sapiens, 72-h incubation
Protocol: as §1

MCF-7 cells [4] = experiment: MCF-7 cancer cell growth inhibition, MTT (Example 6); assay type: cell-based; settings: Homo sapiens, MCF7, 72-h incubation
Protocol: as §1

HeLa cells [5] = experiment: HeLa cell growth inhibition, MTT (Example 2); assay type: cell-based; settings: Homo sapiens, 72 h, mean ± SD of at least two measurements in duplicates unless noted
Protocol: (§2) HeLa cells (human cervical cancer cells) were obtained from American Type Culture Collection (ATCC) and maintained in Dulbecco's modified Eagle medium (DMEM, Invitrogen, Carlsbad, Calif.) supplemented with 10% (v/v) fetal calf serum (Sigma, St. Louis, Mo.), 10 μg/mL penicillin and 10 μg/mL streptomycin (Invitrogen, Carlsbad, Calif.) at 37° C. under 5% CO2. HeLa cells (2,000 cells/well) were plated in 96-well plates the day before experiment. On the day of experiment, different concentrations of the drugs (final concentration 10^−8-10^−4 M) in duplicates were added to the cells and the cells were further incubated for 72 h. Then, the number of live cells was quantified by 3-(4,5-dimethyl-2-thiazolyl)-2,5-diphenyl-2H-tetrazolium bromide (MIT reagent, Sigma, St. Louis, Mo.).
(§3) The amount of reduced MTT formazan generated by live cells was determined by its absorbance at 570 nm after subtracting the background absorbance at 690 nm. The percent of cell growth was expressed as (A570(treated)−A570(initial))/(A570(vehicle treated)−A570(initial))×100, where A570(initial) represents initial cell population when drugs are added. The GI50 were derived from non-linear regression analysis of the dose-response curve using Prism 4.0 (GraphPad).

MCF-7 cells [6] = experiment: MCF-7 cell growth inhibition, MTT (Example 2); assay type: cell-based; settings: Homo sapiens, MCF7, 72 h, mean ± SD of at least two measurements in duplicates unless noted
Protocol: as §2
(§4) Following the same procedure, identical experiments were performed using, A549 cells (human lung cancer cells) and MCF-7 cells (human breast cancer cells).
as §3

A549 cells [7] = experiment: A549 cell growth inhibition, MTT (Example 2); assay type: cell-based; settings: Homo sapiens, 72 h, mean ± SD of at least two measurements in duplicates unless noted
Protocol: as §2, §4, §3

[8] = Maximum tolerated dose in nude mice; assay type: in vivo; settings: for tolerability: ten days
Protocol: The maximum tolerated dose (MTD) of compound 4 and compound 7 was evaluated in nude mice.
In this study 7 groups were established, each with three mice per group. 10 μl/g of a mixture of 10 ml of DMSO and 10 ml sterile saline was administered per day to group I, the control group; compound 4 was administered intravenously at dose levels of 10, 25, and 50 mg/kg and a dose volume of 10 μl/g per day to groups 2-4 respectively; and compound 7 was administered intravenously at dose levels of 10, 25, and 50 mg/kg and a dose volume of 10 μl/g per day to groups 5-7 respectively. The study was run for ten days.
Animals were monitored individually up to 7 days after final treatment. Daily general health observations included animal mortality, appearance, spontaneous activity, body posture, and food and water intake. Lesions and any other adverse reactions were recorded.

GI50 (HeLa cells [5]) [µM] | GI50 (MCF-7 cells [6]) [µM] | GI50 (A549 cells [7]) [µM] | Compound | other results
– | – | – | CC[C@@]1(O)C(=O)OCc2c1cc1n(c2=O)Cc2cc3ccccc3nc2-1 [CPT, camptothecin] | neuronal cell death (primary rat neurons): killed most of the neurons
– | – | – | NCCCOc1cc2ccccc2cc1C(=O)Nc1ccc(Cl)cc1OC(=O)c1cc2ccccc2cc1OCCCN [drawing 56] | IC50 [1]: 2.74 µM; GI50 (A549 cells [2]): 0.59 ± 0.02 µM; IC50 (KIX-KID interaction): 7.08 µM; GI50 (HeLa cells [3]): 0.29 ± 0.05 µM; GI50 (MCF-7 cells [4]): 0.42 ± 0.15 µM
26.9 | 4.87 ± 1.27 | 56.9 ± 7.75 | O=C(Nc1ccccc1)c1cc2ccccc2cc1O | –
5.2 ± 0.61 | 24.8 ± 0.94 | 62 ± 15.5 | COc1cc2ccccc2cc1C(=O)Nc1ccc(Cl)cc1 | –
– | – | – | NCCCOc1cc(Cl)ccc1NC(=O)c1cc2ccccc2cc1OCCCN [drawing 54] | IC50 [1]: 22.9 µM; GI50 (A549 cells [2]): 1.84 ± 0.11 µM; IC50 (KIX-KID interaction): 14.7 µM; GI50 (HeLa cells [3]): 0.71 ± 0.21 µM; GI50 (MCF-7 cells [4]): 1.69 ± 0.39 µM
– | – | – | COc1cc2ccccc2cc1C(=O)Oc1cc(Cl)ccc1NC(=O)c1cc2ccccc2cc1OCCCN | GI50 (A549 cells [2]): 12.9 µM; GI50 (HeLa cells [3]): 3.12 µM; GI50 (MCF-7 cells [4]): 29.4 µM
– | – | – | Cl.Cl.NCCCOc1cc(Cl)ccc1NC(=O)c1cc2ccccc2cc1OCCCN [Compound 4, 3-(3-Aminopropoxyl)-N-(2-(3-aminopropoxy)-4-chlorophenyl)-2-naphthamide dihydrochloride] | tolerability ([8]; 10 mg/kg per day intravenously): tolerated very well; tolerability ([8]; 25 mg/kg per day intravenously): tolerated very well; tolerability ([8]; 50 mg/kg per day intravenously): minor toxicity; body weight loss ([8]; 50 mg/kg, two of three animals at day 5 and day 6, recovery from day 7): 10-20%
8.32 ± 0.55 | 6.55 ± 2.28 | 85.7 ± 8.74 | COc1ccc(NC(=O)c2cc3ccccc3cc2O)cc1 | –
– | – | – | COc1cc2ccccc2cc1C(=O)Nc1ccc(Cl)cc1OC(=O)c1cc2ccccc2cc1OC [drawing 55] | IC50 [1]: 1.14 µM; GI50 (A549 cells [2]): 8.78 ± 2.55 µM; IC50 (KIX-KID interaction): 0.25 µM; GI50 (HeLa cells [3]): 0.33 ± 0.07 µM; GI50 (MCF-7 cells [4]): 3.38 ± 0.49 µM
67.2 ± 46.3 | 28 ± 4.63 | 51.6 ± 11.9 | Nc1ccc(NC(=O)c2cc3ccccc3cc2O)cc1 | –
2.06 ± 0.31 | 2.34 ± 0.51 | 6.78 ± 1.32 | O=C(Nc1ccc(F)cc1)c1cc2ccccc2cc1O | –
1.47 ± 0.42 | 0.84 ± 0.18 | 3.42 ± 0.43 | NCCCOc1cc2ccccc2cc1C(=O)Nc1ccc(Cl)cc1 | –
12.9 ± 4.34 | 13.6 ± 4.9 | 29.5 ± 5.27 | CN(C(=O)c1cc2ccccc2cc1O)c1ccc(Cl)cc1 | –
3.74 ± 0.81 | 9.76 ± 6.31 | 5.45 ± 0.89 | O=C(Nc1ccc(I)cc1)c1cc2ccccc2cc1O | –
42.3 ± 6.7 | 6.8 ± 6.34 | 28.1 | O=C(Nc1ccc(O)cc1)c1cc2ccccc2cc1O | –
6.14 ± 3.03 | 15.8 ± 5.29 | 25 ± 10.7 | O=C(Nc1ccncc1)c1cc2ccccc2cc1O | –
– | – | – | NCCCOc1cc2ccccc2cc1C(=O)Nc1ccc(Cl)cc1OC(=O)c1cc2ccccc2cc1OCCCN [Compound 7] | tolerability ([8]; 10 mg/kg per day intravenously): tolerated very well; tolerability ([8]; 25 mg/kg per day intravenously): tolerated very well; local effect at injection site ([8]; 50 mg/kg intravenously): severe irritative effect on tail skin; tolerability ([8]; 50 mg/kg per day intravenously): tolerated very well
2.18 ± 0.17 | 2.09 ± 0.82 | 3.57 ± 0.23 | O=C(Nc1ccc(F)c(F)c1)c1cc2ccccc2cc1O | –
0.27 ± 0.19 | 2.96 ± 0.66 | 5.25 ± 0.75 | COc1cc2ccccc2cc1C(=O)Nc1ccc(Cl)cc1OC(=O)c1cc2ccccc2cc1OC [drawing 35] | –
2.94 ± 0.7 | 1.5 ± 0.16 | 3.28 ± 0.31 | O=C(Nc1ccc([N+](=O)[O-])cc1)c1cc2ccccc2cc1O | –
12.6 ± 12.1 | 12.7 ± 13.2 | 32.2 ± 2.88 | O=C(Nc1cnccn1)c1cc2ccccc2cc1O | –
2.12 ± 0.007 | 1.83 ± 0.7 | 3.98 ± 0.65 | O=C(Nc1ccc(Br)cc1)c1cc2ccccc2cc1O | –
– | – | – | COc1cc2ccccc2cc1C(=O)Nc1ccc(Cl)cc1OC(=O)c1cc2ccccc2cc1OCCCN | GI50 (A549 cells [2]): 12.9 µM; GI50 (HeLa cells [3]): 2.33 µM; GI50 (MCF-7 cells [4]): 19.4 µM
2.4 ± 0.36 | 3.62 ± 2.56 | 4.15 ± 0.5 | O=C(Nc1ccc(C(F)(F)F)cc1)c1cc2ccccc2cc1O | –
– | – | – | O=C(Nc1ccc(Cl)cc1)c1cc2ccccc2cc1O [drawing 53] | IC50 [1]: 2.2 µM; GI50 (A549 cells [2]): 4.58 ± 1.52 µM; IC50 (KIX-KID interaction): 2.41 µM; GI50 (HeLa cells [3]): 2.97 ± 0.74 µM; GI50 (MCF-7 cells [4]): 2.56 ± 0.45 µM
2.44 ± 0.56 | 5.21 ± 4.92 | 3.76 ± 0.31 | O=C(Nc1ccc(F)c(Cl)c1)c1cc2ccccc2cc1O | –
11.5 ± 8.9 | 6.25 ± 5.89 | 75.8 ± 23.1 | O=C(Nc1ccccn1)c1cc2ccccc2cc1O | –

Compound | GI50 (HeLa cells [5]) [µM] | GI50 (MCF-7 cells [6]) [µM] | GI50 (A549 cells [7]) [µM] | other results
NCCCOc1cc(Cl)ccc1NC(=O)c1cc2ccccc2cc1OCCCN [drawing 36] | 0.48 ± 0.35 | 1.65 ± 0.42 | 2.57 ± 0.41 | –
O=C(Nc1ccc(Cl)cc1)c1cc2ccccc2cc1OP(=O)(O)O [drawing 33] | 2.53 ± 0.58 | 1.93 | 1.94 | –
O=C(Nc1ccc(Cl)cc1)c1cc2ccccc2cc1O [drawing 32] | 2.52 ± 0.77 | 2.76 ± 0.35 | 2.88 ± 0.35 | –

From patent US8653086B2, “Naphthamides as anticancer agents” (Oregon Health & Science University, priority 2008, dated 2014)
